Measurements published in patent US7256286B2, “Bryostatin analogues, synthetic methods and uses” (The Board of Trustees of the Leland Stanford Junior …, priority 1999, dated 2007).

Assays:
UACC-62 = assay: NCI human cancer cell line growth inhibition: UACC-62; format: cell-based; conditions: UACC-62, Melanoma
SNB-19 = assay: NCI human cancer cell line growth inhibition: SNB-19; format: cell-based; conditions: SNB-19, CNS
MCF7 = assay: NCI human cancer cell line growth inhibition: MCF7; format: cell-based; conditions: MCF7, Breast
SN12C = assay: NCI human cancer cell line growth inhibition: SN12C; format: cell-based; conditions: Renal
K-562 = assay: NCI human cancer cell line growth inhibition: K-562; format: cell-based; conditions: K-562, Leukemia
T-47D = assay: NCI human cancer cell line growth inhibition: T-47D; format: cell-based; conditions: Breast
DU-145 = assay: NCI human cancer cell line growth inhibition: DU-145; format: cell-based; conditions: DU-145, Prostate
PKCδ-C1B = target: T1, PKCδ-C1B (Mus musculus, UniProt P28867); assay: PKCδ-C1B assay; format: binding
T1 construct: made in house
Experimental: Phosphatidyl serine vesicles are prepared by the addition of phosphatidyl serine (10 mg/mL in chloroform, 0.4 mL) to a glass test tube followed by removal of the chloroform under a stream of nitrogen (5 min). […] The resulting solution is stored over ice. […] Stock solutions of compounds are diluted with absolute ethanol in glass in serial fashion. […] The tubes are incubated at 37° C. for 90 min. and then put on ice for 5 min. Each tube is then filtered separately through a pre-soaked filter disc. […] The filter is subsequently rinsed with cold 20 mM TRIS buffer (5 mL) dropwise. […] The filters are immediately counted in a scintillation counter (Beckman LS 6000SC). Counts per minute are averaged among three trials at each concentration.

COLO 205 = assay: NCI human cancer cell line growth inhibition: COLO 205; format: cell-based; conditions: COLO 205, Colon
TK-10 = assay: NCI human cancer cell line growth inhibition: TK-10; format: cell-based; conditions: TK-10, Renal
HL-60(TB) = assay: cells; format: cell-based, human
EKVX = assay: NCI human cancer cell line growth inhibition: EKVX; format: cell-based; conditions: NSC Lung
SF-295 = assay: NCI human cancer cell line growth inhibition: SF-295; format: cell-based; conditions: SF-295, CNS
OVCAR-3 = assay: NCI human cancer cell line growth inhibition: OVCAR-3; format: cell-based; conditions: OVCAR-3, Ovarian
IGROVI = assay: NCI human cancer cell line growth inhibition: IGROVI; format: cell-based; conditions: Ovarian
HOP-92 = assay: NCI human cancer cell line growth inhibition: HOP-92; format: cell-based; conditions: HOP-92, NSC Lung
786-0 = assay: NCI human cancer cell line growth inhibition: 786-0; format: cell-based; conditions: 786-0, Renal
PC-3 = assay: NCI human cancer cell line growth inhibition: PC-3; format: cell-based; conditions: PC-3, Prostate
SF-268 = assay: NCI human cancer cell line growth inhibition: SF-268; format: cell-based; conditions: SF-268, CNS
SK-MEL-5 = assay: NCI human cancer cell line growth inhibition: SK-MEL-5; format: cell-based; conditions: SK-MEL-5, Melanoma
SW-620 = assay: NCI human cancer cell line growth inhibition: SW-620; format: cell-based; conditions: SW-620, Colon
HS 578T = assay: NCI human cancer cell line growth inhibition: HS 578T; format: cell-based; conditions: Breast
BT-549 = assay: NCI human cancer cell line growth inhibition: BT-549; format: cell-based; conditions: BT-549, Breast
LOX IMVI = assay: NCI human cancer cell line growth inhibition: LOX IMVI; format: cell-based; conditions: Melanoma
[1] = test system: NCI human cancer cell-lines; assay: In vitro inhibition of growth in human cancer cell lines (all cell groups); format: cell-based; conditions: on average, all cell groups tested
NCI-H460 = format: cell-based, human; conditions: NCI-H460, NSC Lung
OVCAR-8 = assay: NCI human cancer cell line growth inhibition: OVCAR-8; format: cell-based; conditions: OVCAR-8, Ovarian
HCT-15 = assay: NCI human cancer cell line growth inhibition: HCT-15; format: cell-based; conditions: Homo sapiens; HCT-15, Colon
CCRF-CEM = assay: NCI human cancer cell line growth inhibition: CCRF-CEM; format: cell-based; conditions: Leukemia
ACHN = assay: NCI human cancer cell line growth inhibition: ACHN; format: cell-based; conditions: Renal
SR = assay: NCI human cancer cell line growth inhibition: SR; format: cell-based; conditions: Leukemia
HCT-116 = assay: NCI human cancer cell line growth inhibition: HCT-116; format: cell-based; conditions: HCT-116, Colon
HT29 = assay: NCI human cancer cell line growth inhibition: HT29; format: cell-based; conditions: HT29, Colon
SK-OV-3 = assay: NCI human cancer cell line growth inhibition: SK-OV-3; format: cell-based; conditions: SK-OV-3, Ovarian

T1 sequence (P28867 231-281 limits assumed): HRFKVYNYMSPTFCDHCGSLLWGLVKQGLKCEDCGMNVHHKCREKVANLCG

How did the GI50 (UACC-62; Homo sapiens) turn out when `CCCCCCCC(=O)O[C@H]1/C(=C/C(=O)OC)C[C@H]2C[C@H](CO)OC(=O)C[C@H](O)C[C@@H]3CCCC(CC4CCO[C@H](/C=C/C(C)(C)[C@]1(O)O2)O4)O3` [Formula IIa (702.1)] was run?
Its GI50 is 7.76 µM.

And the “Difference (GI50 desmethyl vs Bryo-1)” value (UACC-62)?
The value was 0.19.

And the GI50 (SNB-19; Homo sapiens)?
The GI50 was 6.31 µM.

And the “Difference (GI50 desmethyl vs Bryo-1)” value (SNB-19)?
The value was −0.20.

What about the GI50 (MCF7; Homo sapiens) of the same compound?
The GI50 was 3.98 µM.

And the “Difference (GI50 desmethyl vs Bryo-1)” value (MCF7)?
The value was −0.20.

What about the GI50 (SN12C; Homo sapiens) of the same compound?
The GI50 was 2.57 µM.

What about the “Difference (GI50 desmethyl vs Bryo-1)” value (SN12C) of the same compound?
The value was −0.49.

And the GI50 (K-562; Homo sapiens, K562)?
The GI50 was 0.0316 µM.

What about the “Difference (GI50 desmethyl vs Bryo-1)” value (K-562) of the same compound?
The value was −2.10.

And the “more active than bryostatin-1 by” value (K-562)?
Its value is “more than 2 orders of magnitude”.

And the “Difference (GI50 desmethyl vs Bryo-1)” value (T-47D)?
The value was 0.18.

And the GI50 (T-47D; Homo sapiens, T47D)?
Its GI50 is 9.55 µM.

What about the “Difference (GI50 desmethyl vs Bryo-1)” value (DU-145) of the same compound?
Its value is −0.02.

And the GI50 (DU-145; Homo sapiens)?
The GI50 was 9.55 µM.

And the Ki (PKCδ-C1B)?
Its Ki is 0.0003 ± 7e-05 µM.

And the “activity in PKCδ-C1B assay compared with other analogues” value (PKCδ-C1B; 702.1 vs corresponding C26 methyl-containing analogue, 48, 49 among C20 ester analogues)?
The value was “significantly higher activity”.

What about the “Difference (GI50 desmethyl vs Bryo-1)” value (COLO 205) of the same compound?
The value was −1.68.

What about the GI50 (COLO 205; Homo sapiens) of the same compound?
The GI50 was 0.0832 µM.

And the GI50 (TK-10; Homo sapiens)?
The GI50 was 0.0933 µM.

And the “Difference (GI50 desmethyl vs Bryo-1)” value (TK-10)?
The value was −2.03.

And the “more active than bryostatin-1 by” value (TK-10)?
The value was “more than 2 orders of magnitude”.

And the “Difference (GI50 desmethyl vs Bryo-1)” value (HL-60(TB))?
The value was −0.14.

What about the GI50 (HL-60(TB); Homo sapiens, HL-60, read-out: Growth inhibition (GI50)) of the same compound?
Its GI50 is 1.45 µM.

What about the GI50 (EKVX; Homo sapiens) of the same compound?
The GI50 was 2.63 µM.

What about the “Difference (GI50 desmethyl vs Bryo-1)” value (EKVX) of the same compound?
The value was −0.28.

And the GI50 (SF-295; Homo sapiens)?
The GI50 was 0.891 µM.

And the “Difference (GI50 desmethyl vs Bryo-1)” value (SF-295)?
Its value is −0.85.

And the GI50 (OVCAR-3; Homo sapiens)?
The GI50 was 14.8 µM.

What about the “Difference (GI50 desmethyl vs Bryo-1)” value (OVCAR-3) of the same compound?
Its value is 0.27.

What about the GI50 (IGROVI; Homo sapiens) of the same compound?
Its GI50 is 13.2 µM.

What about the “Difference (GI50 desmethyl vs Bryo-1)” value (IGROVI) of the same compound?
Its value is 0.42.

What about the “Difference (GI50 desmethyl vs Bryo-1)” value (HOP-92) of the same compound?
Its value is 0.63.

What about the GI50 (HOP-92; Homo sapiens) of the same compound?
The GI50 was 21.4 µM.

And the “Difference (GI50 desmethyl vs Bryo-1)” value (786-0)?
The value was −0.26.

What about the GI50 (786-0; Homo sapiens) of the same compound?
The GI50 was 3.47 µM.

And the GI50 (PC-3; Homo sapiens)?
Its GI50 is 2.51 µM.

What about the “Difference (GI50 desmethyl vs Bryo-1)” value (PC-3) of the same compound?
The value was −0.30.

What about the GI50 (SF-268; Homo sapiens) of the same compound?
Its GI50 is 10.7 µM.

What about the “Difference (GI50 desmethyl vs Bryo-1)” value (SF-268) of the same compound?
The value was 0.13.

What about the GI50 (SK-MEL-5; Homo sapiens) of the same compound?
The GI50 was 0.372 µM.

And the “Difference (GI50 desmethyl vs Bryo-1)” value (SK-MEL-5)?
The value was −0.73.

What about the GI50 (SW-620; Homo sapiens) of the same compound?
The GI50 was 7.59 µM.

And the “Difference (GI50 desmethyl vs Bryo-1)” value (SW-620)?
The value was 0.38.

And the “Difference (GI50 desmethyl vs Bryo-1)” value (HS 578T)?
Its value is 0.02.

What about the GI50 (HS 578T; Homo sapiens) of the same compound?
The GI50 was 6.61 µM.

And the “Difference (GI50 desmethyl vs Bryo-1)” value (BT-549)?
Its value is 0.39.

What about the GI50 (BT-549; Homo sapiens) of the same compound?
The GI50 was 19.5 µM.

And the GI50 (LOX IMVI; Homo sapiens)?
The GI50 was 3.39 µM.

What about the “Difference (GI50 desmethyl vs Bryo-1)” value (LOX IMVI) of the same compound?
Its value is −0.37.

What about the “potency compared with bryostatin-1” value [1] of the same compound?
The value was “at least as potent, on average, as bryostatin-1”.

What about the GI50 (NCI-H460; Homo sapiens, read-out: Growth inhibition (GI50)) of the same compound?
The GI50 was < 0.01 µM.

And the “Difference (GI50 desmethyl vs Bryo-1)” value (NCI-H460)?
The value was −2.40.

And the “more active than bryostatin-1 by” value (NCI-H460)?
The value was “more than 2 orders of magnitude”.

What about the GI50 (OVCAR-8; Homo sapiens) of the same compound?
The GI50 was 17 µM.

And the “Difference (GI50 desmethyl vs Bryo-1)” value (OVCAR-8)?
Its value is 0.33.

What about the GI50 (HCT-15) of the same compound?
Its GI50 is 17.4 µM.

What about the GI50 (CCRF-CEM; Homo sapiens) of the same compound?
The GI50 was 1.55 µM.

What about the “Difference (GI50 desmethyl vs Bryo-1)” value (CCRF-CEM) of the same compound?
Its value is −0.51.

What about the GI50 (ACHN; Homo sapiens) of the same compound?
The GI50 was 1.15 µM.

And the “Difference (GI50 desmethyl vs Bryo-1)” value (ACHN)?
The value was −0.44.

What about the GI50 (SR; Homo sapiens) of the same compound?
Its GI50 is 7.94 µM.

And the “Difference (GI50 desmethyl vs Bryo-1)” value (SR)?
Its value is −0.10.

What about the “Difference (GI50 desmethyl vs Bryo-1)” value (HCT-116) of the same compound?
The value was −0.02.

And the GI50 (HCT-116; Homo sapiens)?
The GI50 was 4.79 µM.

What about the “Difference (GI50 desmethyl vs Bryo-1)” value (HT29) of the same compound?
The value was −0.25.

And the GI50 (HT29; Homo sapiens, HT-29)?
The GI50 was 2.82 µM.

And the GI50 (SK-OV-3; Homo sapiens)?
The GI50 was 50.1 µM.

What about the “Difference (GI50 desmethyl vs Bryo-1)” value (SK-OV-3) of the same compound?
The value was 0.80.
